{"source": "patent US8148426B2", "about": "“Bis(thio-hydrazide amides) for increasing Hsp70 expression” (Synta Pharmaceuticals Corp., priority 2004, dated 2012)", "key": {"in vivo": {"assay": "in vivo", "procedure": "The compounds were prepared in two formulations: Formulation A contained 10% DMSO, and 18% Cremophor RH40 in water; Formulation B contained ethanol:Cremophor EL in a 1:1 ratio.\nBlood samples were taken at 30 min, 1, 2, and 4 hr after injection. Brain tissue samples were taken after blood collected at 30 min, where one mouse from each group was selected and its brain was removed for analysis.\nBlood samples were combined with 3-5 mg solid DTT, after which the sample was vortexed and centrifuged at 6,000 rpm×10 min. A 50 μL aliqot of plasma was taken, followed by the addition of 50 μL 1% DTT and 150 μL CH3CN (0.1% TFA). The mixture was vortexed and centrifuged at 10,000 rpm×5 min. The 150 μL supernatant was diluted with 150 μL water. A weighed tissue sample was homogenized in PBS (1:1), then combined with 1% DTT (1:1), followed by the addition of CH3CN containing 0.1% TFA (3:1). The mixture was vortexed and centrifuged at 10,000 rpm×5 min. The 150 μL supernatant was diluted with 150 μL water. 100 μL prepared samples were subjected to HPLC, using 5-95% CH3CN (0.1% trifluoroacetic acid) as the eluent."}, "Hsp70 [1]": {"tested_on": "Hsp70", "assay": "Phase I trial, Hsp70 in plasma before and after treatment (Example 11)", "assay_type": "in vivo, human", "procedure": "(§1) Plasma Hsp70 was measured by a sandwich ELISA kit (Stressgen Bioreagents Victoria, British Columbia, CANADA) according to a modified protocol in house. In brief, Hsp70 in plasma specimens and serial concentrations of Hsp70 standard were captured onto 96-well plate on which anti-Hsp70 antibody was coated. Then captured Hsp70 was detected with a biotinylated anti-Hsp70 antibody followed by incubation with europium-conjugated streptavidin. After each incubation unbound materials were removed by washing. Finally, antibody-Hsp70 complex was measured by time resolved fluorometry of europium. Concentration of Hsp70 was calculated from a standard curve."}, "Hsp70 [2]": {"tested_on": "Hsp70", "assay": "Plasma Hsp70 levels by ELISA in non-tumor-bearing mice (Example 3)", "assay_type": "in vivo", "conditions": "normal (non-tumor bearing) mice; 25 mg/kg intravenously 3 times a week; compared to vehicle", "procedure": "as §1, with “Non-tumor-bearing mice were with either vehicle alone or compound (1). The vehicle employed was 10% DMSO, 18% Cremophor RH40. […] Plasma samples were prepared from tail bleed. Plasma Hsp70 levels were determined by Enzyme-Linked Immunosorbent Assay (ELISA). Plasma” for “Plasma”"}, "K562/eGFP": {"tested_on": "K562/eGFP", "assay": "NK cell cytotoxic activity of patients' PBMC (Example 12)", "assay_type": "in vivo, human", "excerpt": "The following procedure can be employed to assay NK cell activity in a subject. The procedure is adapted from Kantakamalakul W, Jaroenpool J, Pattanapanyasat K. A novel enhanced green fluorescent protein (EGFP)-K562 flow cytometric method for measuring natural killer (NK) cell cytotoxic activity. J Immunol Methods. 2003 Jan. 15; 272:189-197, the entire teachings of which are incorporated herein by reference.\nK562 cells were transduced with retroviral vector which encode green fluorescent protein (eGFP). Stable cell line was selected with antibiotic, G418.\nThe subject's peripheral blood mononuclear cells (PBMCs) were prepared by clinical study sites and received in BD Vacutainer Cell Preparation Tube with sodium heparin (Product Number: 362753, Becton Dickinson, Franklin Lakes, N.J.).\nEffector cells alone and target cells alone were used as controls. All tubes were incubated at 37° C. with 5% CO2 for about 3.5 hr. Ten microliters of propidium iodide (PI) at a concentration of 1 mg/mL was added t each tube including effector and target control tubes and then incubated at room temperature for 15 min.\nCytotoxic activity was analyzed with a FACSCalibur flow cytometer (Becton Dickinson). Linear amplification of the forward and side scatter (FSC/SSC) signals, as well as logarithmic amplification of eGFP and PI emission in green and red fluorescence were obtained. […]"}, "[3]": {"assay": "Phase 1/2 study, safety (Example 12)", "assay_type": "in vivo, human", "procedure": "Phase 1 (safety/PK/MTD (maximum tolerated dose) was followed by a Phase 2 randomized two arm portion. Two dose levels were evaluated in Phase 1.\nDosing was IV q 3 weeks for up to 6 cycles in the absence of dose-limiting toxicity or progression. […] The phase 2 primary endpoint is time to progression, with secondary endpoints of response rate, survival, and quality of life. Study pharmacodynamic parameters include NK cell activity and Hsp70 level."}, "[4]": {"assay": "Tissue distribution in SW female mice, intravenous (Example 1)", "assay_type": "in vivo", "conditions": "mouse", "procedure": "Plasma samples were prepared by combining 50 μL plasma+50 μL 1% dithiothreitol (DTT)+150 μL CH3CN (0.1% HCOOH), centrifuged at 10,000 rpm×5 min; 150 μL supernatant+90 μL H2O. Tissue samples were prepared by homogenizing a weighed tissue sample in phosphor-buffered saline (PBS, ×1)+1% DTT (×1)+CH3CN (0.1% HCOOH) (×3)), centrifuged at 10,000 rpm×5 min; 150 μL supernatant+90 μL H2O. […] The running time was 15 min."}, "[5]": {"conditions": "in vivo"}, "[6]": {"assay": "Phase I trial, plasma pharmacokinetics by LC/MS (Example 11)", "conditions": "co-administered with Compound (1) 44-[…]^2", "procedure": "Pharmacokinetic (PK) studies were performed during cycle 1 using liquid chromatography/mass spectrometry (LC/MS) to measure both compounds in plasma. Heat shock protein 70 (Hsp70) was measured in plasma before and after treatment."}}, "note": "Where “and” joins values, the source holds several entries; their conditions need not be identical. Equal values may be shown once. Read-outs that look alike come from different tables or passages of the source."}
{"smiles": "CN(NC(=O)CC(=O)NN(C)C(=S)c1ccccc1)C(=S)c1ccccc1", "note": "[Compound (1)]", "values": [{"measurement": "half-life", "setting": "in vivo; female, SW, mouse, in vivo, po, 100 mg/kg", "value": 138, "unit": "min"}, {"measurement": "Hsp70 concentrations, change", "setting": "Hsp70 [1]; 175 mg/m2 Compound (1) + paclitaxel 175 mg/m2, two patients", "value": "more than doubled"}, {"measurement": "percent increase in Hsp70 concentrations", "setting": "Hsp70 [1]; 263 mg/m2 Compound (1) + paclitaxel 175 mg/m2, a third patient", "value": "more than 250%"}, {"measurement": "Hsp70 concentrations, change", "setting": "Hsp70 [1]; 263 mg/m2 Compound (1) + paclitaxel 175 mg/m2, two patients", "value": "roughly doubled"}, {"measurement": "percent increase in Hsp70 concentrations", "setting": "Hsp70 [1]; 350 mg/m2 Compound (1) + paclitaxel 175 mg/m2, all patients", "value": "more than 200%"}, {"measurement": "percent increase in Hsp70 concentrations", "setting": "Hsp70 [1]; 350 mg/m2 Compound (1) + paclitaxel 175 mg/m2, two patients", "value": "≤ 500", "unit": "%"}, {"measurement": "percent increase in Hsp70 concentrations", "setting": "Hsp70 [1]; 438 mg/m2 Compound (1) + paclitaxel 175 mg/m2, another patient", "value": "≤ 500", "unit": "%"}, {"measurement": "Hsp70 concentrations, change", "setting": "Hsp70 [1]; 438 mg/m2 Compound (1) + paclitaxel 175 mg/m2, two patients", "value": "roughly doubled"}, {"measurement": "induction of Hsp70 protein in plasma, dose dependence", "setting": "Hsp70 [1]; combined with paclitaxel", "value": "dose dependent"}, {"measurement": "plasma levels of Hsp70", "setting": "Hsp70 [2]", "value": "increase"}, {"measurement": "patients with evaluable samples showing increased NK cell activity", "setting": "K562/eGFP; assayed 7 days after the second dose, with carboplatin and paclitaxel", "value": "Seven of the 8"}, {"measurement": "% tumor cell lysis post-dose", "setting": "K562/eGFP; per subject, Effector/Target 80:1, dose cells empty (subjects 9-11)", "value": "3.8% and 45.98%"}, {"measurement": "adverse effects (AEs), usually Grade 1-2", "setting": "[3]; Phase 1, 16 patients, with carboplatin and paclitaxel", "value": "arthralgia and myalgia, peripheral neuropathy, rash, nausea, and vomiting, fatigue, alopecia, edema, dehydration, constipation, and decreased blood counts"}, {"measurement": "tolerability of the carboplatin:paclitaxel:Compound (1) combination", "setting": "[3]; at the dose levels studied", "value": "well tolerated"}]}
{"smiles": "COc1ccc(OC)c(C(=S)N(C)NC(=O)C(C)C(=O)NN(C)C(=S)c2cc(OC)ccc2OC)c1", "note": "[Compound (9)]", "values": [{"measurement": "per os AUC as % of the intravenous value at 4 hours", "setting": "in vivo; per os 100 mg/kg formulation B vs intravenous 25 mg/kg formulation A, AUC 0-4 hours", "value": "about 30%"}]}
{"smiles": "CN(NC(=O)CC(=O)NN(C)C(=S)C1CC1)C(=S)C1CC1", "note": "[Compound (18)]", "values": [{"measurement": "Kp at 30 min", "setting": "[4]; brain, intravenous, 25 mg/kg, read-out: brain concentration as % of plasma concentration", "value": 0.19}, {"measurement": "Kp at 30 min", "setting": "[4]; brain, iv, first experiment, 25 mg/kg intravenously, 30 min after injection, read-out: brain concentration as % of the plasma concentration", "value": "~0.07"}, {"measurement": "concentration at 30 min", "setting": "[4]; brain, iv, first experiment, 25 mg/kg intravenously, 30 min after injection, read-out: concentration in brain", "value": "~2", "unit": "µM"}, {"measurement": "concentration at 30 min", "setting": "[4]; kidney, iv, first experiment, 25 mg/kg intravenously, 30 min after injection, read-out: concentration in kidney", "value": 50, "unit": "µM"}, {"measurement": "concentration at 30 min", "setting": "[4]; liver, iv, first experiment, 25 mg/kg intravenously, 30 min after injection, read-out: concentration in liver", "value": 33, "unit": "µM"}, {"measurement": "concentration at 30 min", "setting": "[4]; spleen, iv, first experiment, 25 mg/kg intravenously, 30 min after injection, read-out: concentration in spleen", "value": 25, "unit": "µM"}]}
{"smiles": "CC(=O)O[C@H]1C(=O)[C@@]2(C)[C@H]([C@H](OC(=O)c3ccccc3)[C@]3(O)C[C@H](OC(=O)[C@H](O)[C@@H](NC(=O)c4ccccc4)c4ccccc4)C(C)=C1C3(C)C)[C@]1(OC(C)=O)CO[C@@H]1C[C@@H]2O", "note": "[Paclitaxel, paclitaxel]", "values": [{"measurement": "dose limiting toxicities", "setting": "[5]", "value": "neutropenia, arthralgia, and febrile neutropenia with mucositis"}, {"measurement": "paclitaxel Vss, dependence on the Compound (1) dose", "setting": "[6]", "value": "increase"}, {"measurement": "paclitaxel clearance, dependence on the Compound (1) dose", "setting": "[6]", "value": "significant trend toward decreasing clearance"}, {"measurement": "paclitaxel terminal phase half-life, dependence on the Compound (1) dose", "setting": "[6]", "value": "without affecting"}]}
